# Experimental data: PubChem BioAssay (NCI)
# Values joined by “and” are separate entries in the source; they are usually repeats but may differ in a detail not shown here. Equal entries are not always repeated.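 In this assay, cells in 96-well plates receive the compound at five concentrations for 48 hours. Endpoints are linearly interpolated between the surrounding concentrations. The concentration for 50% growth inhibition is given as GI50. Definition used: TGI = concentration required for complete inhibition of growth.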
# Experiments:
# Assay in all cases: NCI tumour cell line growth inhibition, 48 h
# MOLT-4 leukemia = system: MOLT-4 leukemia
# 786-0 renal = system: 786-0 renal
# T-47D breast = system: T-47D breast
# RXF 393 renal = system: RXF 393 renal
# IGROV1 ovarian = system: IGROV1 ovarian
# CAKI-1 renal = system: CAKI-1 renal
# ACHN renal = system: ACHN renal
# A549 NSCLC = system: A549 NSCLC
# SF-268 CNS = system: SF-268 CNS
# MCF7 breast = system: MCF7 breast
smiles,measurement,setting,value
CN(C)c1ccc2oc(=O)c3ccccc3c2c1,TGI,MOLT-4 leukemia,> 100 µM
same,TGI,786-0 renal,79.6 µM
same,TGI,T-47D breast,> 100 µM
same,TGI,RXF 393 renal,78.9 µM
same,TGI,IGROV1 ovarian,> 100 µM
same,TGI,CAKI-1 renal,> 100 µM
same,TGI,ACHN renal,62.9 µM
same,TGI,A549 NSCLC,> 100 µM
same,TGI,SF-268 CNS,> 100 µM
NC(=O)c1cc([N+](=O)[O-])c(Cl)c([N+](=O)[O-])c1Cl,GI50,786-0 renal,1.44 µM
same,TGI,786-0 renal,2.87 µM
same,GI50,RXF 393 renal,1.15 µM
same,TGI,RXF 393 renal,2.39 µM
same,GI50,IGROV1 ovarian,0.625 µM
same,TGI,IGROV1 ovarian,7.73 µM
same,GI50,CAKI-1 renal,1.84 µM
same,TGI,CAKI-1 renal,3.72 µM
same,GI50,ACHN renal,1.63 µM
same,TGI,ACHN renal,3.71 µM
same,GI50,A549 NSCLC,1.88 µM
same,TGI,A549 NSCLC,3.8 µM
same,GI50,SF-268 CNS,1.64 µM
same,TGI,SF-268 CNS,3.07 µM
same,GI50,MCF7 breast,0.893 µM
same,TGI,MCF7 breast,2.64 µM
O=C(CCCN1CCC(O)(c2ccc(Cl)cc2)CC1)c1ccc(F)cc1,TGI,MOLT-4 leukemia,> 100 µM
same,TGI,786-0 renal,39.8 µM
same,TGI,T-47D breast,> 100 µM
same,TGI,IGROV1 ovarian,> 100 µM
same,TGI,CAKI-1 renal,23.4 µM
same,TGI,ACHN renal,> 100 µM
same,TGI,A549 NSCLC,> 100 µM
same,TGI,SF-268 CNS,> 100 µM
same,TGI,MCF7 breast,> 100 µM
C[C@]12CC[C@H]3[C@@H](CC=C4C[C@@H](N5CCCC5)CC[C@@]43C)[C@@H]1C/C(=C\c1cccc(OCCN3CCOCC3)c1)[C@@H]2O,GI50,786-0 renal,1.64 µM
same,TGI,786-0 renal,3.62 µM
same,GI50,T-47D breast,2.67 µM
same,TGI,T-47D breast,> 100 µM
same,GI50,RXF 393 renal,1.76 µM
same,TGI,RXF 393 renal,3.82 µM
same,GI50,IGROV1 ovarian,12.8 µM
same,TGI,IGROV1 ovarian,> 100 µM
same,GI50,CAKI-1 renal,6.91 µM
same,TGI,CAKI-1 renal,> 100 µM
same,GI50,ACHN renal,4.29 µM
same,TGI,ACHN renal,32.5 µM
same,GI50,A549 NSCLC,3.48 µM
same,TGI,A549 NSCLC,45.4 µM
same,GI50,SF-268 CNS,13.3 µM
same,TGI,SF-268 CNS,> 100 µM
same,GI50,MCF7 breast,19.7 µM
same,TGI,MCF7 breast,98.1 µM
CC1/C(=N\O)CC(c2ccccc2)N(C)C1c1ccccc1 (centres undefined),TGI,MOLT-4 leukemia,> 100 µM
same,TGI,786-0 renal,> 100 µM
same,TGI,RXF 393 renal,> 100 µM
same,TGI,IGROV1 ovarian,> 100 µM
same,TGI,CAKI-1 renal,> 100 µM
same,TGI,ACHN renal,> 100 µM
same,TGI,A549 NSCLC,> 100 µM
same,TGI,SF-268 CNS,> 100 µM
O=C(CC1OC(O)C(Cl)=C1Cl)c1cccnc1 (centres undefined),TGI,MOLT-4 leukemia,> 100 µM
same,TGI,786-0 renal,> 60.1 µM
same,TGI,RXF 393 renal,> 100 µM
same,TGI,IGROV1 ovarian,> 100 µM
same,TGI,CAKI-1 renal,> 100 µM
same,TGI,ACHN renal,> 31.6 µM
same,TGI,A549 NSCLC,> 100 µM
same,TGI,SF-268 CNS,> 100 µM
Cc1cccc(C2SCc3nc4ccccc4n32)c1 (centres undefined),TGI,MOLT-4 leukemia,> 100 µM
same,TGI,786-0 renal,96.2 µM
same,TGI,RXF 393 renal,43.9 µM
same,TGI,IGROV1 ovarian,> 100 µM
same,TGI,CAKI-1 renal,> 100 µM
same,TGI,ACHN renal,> 100 µM
same,TGI,A549 NSCLC,> 100 µM
same,TGI,SF-268 CNS,> 100 µM
O=c1[nH]c2ccccc2nc1/C=C(\O)c1ccccc1O,TGI,MOLT-4 leukemia,> 100 µM
same,TGI,786-0 renal,> 100 µM
same,TGI,RXF 393 renal,> 100 µM
same,TGI,IGROV1 ovarian,> 100 µM
same,TGI,CAKI-1 renal,> 100 µM
same,TGI,ACHN renal,> 100 µM
same,TGI,A549 NSCLC,> 100 µM
same,TGI,SF-268 CNS,> 100 µM
CCOP(=O)(OCC)C1CCCOC1=O (centres undefined),TGI,MOLT-4 leukemia,> 100 µM
same,TGI,786-0 renal,> 100 µM
same,TGI,RXF 393 renal,> 100 µM
same,TGI,IGROV1 ovarian,> 100 µM
same,TGI,CAKI-1 renal,> 100 µM
same,TGI,ACHN renal,> 100 µM
same,TGI,A549 NSCLC,> 100 µM
same,TGI,SF-268 CNS,> 100 µM
COc1ccc(CN2c3ccccc3Sc3ccccc32)c(C(F)(F)F)c1,GI50,MOLT-4 leukemia,2.88 µM
same,TGI,MOLT-4 leukemia,43.4 µM
same,GI50,786-0 renal,9.05 µM
same,TGI,786-0 renal,> 100 µM
same,GI50,RXF 393 renal,0.38 µM
same,TGI,RXF 393 renal,6.55 µM
same,GI50,IGROV1 ovarian,3.43 µM
same,TGI,IGROV1 ovarian,> 100 µM
same,GI50,CAKI-1 renal,1.53 µM
same,TGI,CAKI-1 renal,> 100 µM
same,GI50,ACHN renal,0.666 µM
same,TGI,ACHN renal,> 100 µM
same,GI50,A549 NSCLC,0.807 µM
same,TGI,A549 NSCLC,68.5 µM
same,GI50,SF-268 CNS,10.9 µM
same,TGI,SF-268 CNS,98.5 µM
same,GI50,MCF7 breast,0.349 µM
same,TGI,MCF7 breast,36.8 µM
CN(C)C(=N/O)/C(=N\O)N(C)C,TGI,MOLT-4 leukemia,> 100 µM
same,TGI,786-0 renal,> 100 µM
same,TGI,RXF 393 renal,> 100 µM
same,TGI,IGROV1 ovarian,> 100 µM
same,TGI,CAKI-1 renal,> 100 µM
same,TGI,ACHN renal,> 100 µM
same,TGI,A549 NSCLC,> 100 µM
same,TGI,SF-268 CNS,> 100 µM
COc1cc(/C=C/C(=O)/C=C/c2ccc(-n3ccnc3C)cc2)ccc1O,GI50,MOLT-4 leukemia,4.05 µM
same,TGI,MOLT-4 leukemia,> 100 µM
same,GI50,786-0 renal,2.11 µM
same,TGI,786-0 renal,5.21 µM
same,GI50,T-47D breast,3.12 µM
same,TGI,T-47D breast,15.1 µM
same,GI50,RXF 393 renal,1.66 µM
same,TGI,RXF 393 renal,3.18 µM
same,GI50,IGROV1 ovarian,2.04 µM
same,TGI,IGROV1 ovarian,5.12 µM
same,GI50,CAKI-1 renal,3.06 µM
same,TGI,CAKI-1 renal,10.9 µM
same,GI50,ACHN renal,3.04 µM
same,TGI,ACHN renal,10.4 µM
same,GI50,A549 NSCLC,3.22 µM
same,TGI,A549 NSCLC,> 100 µM
same,GI50,SF-268 CNS,2.9 µM
same,TGI,SF-268 CNS,12.1 µM
CNC(=O)c1c(NC(=O)c2ccc(C(C)(C)C)cc2)sc2c(CN(C)C)c(O)ccc12,GI50,MOLT-4 leukemia,1.28 µM
same,TGI,MOLT-4 leukemia,3.73 µM
same,GI50,786-0 renal,1.74 µM
same,TGI,786-0 renal,3.3 µM
same,GI50,RXF 393 renal,1.67 µM
same,TGI,RXF 393 renal,3.33 µM
same,GI50,CAKI-1 renal,1.68 µM
same,TGI,CAKI-1 renal,3.25 µM
same,GI50,SF-268 CNS,1.77 µM
same,TGI,SF-268 CNS,3.46 µM
same,GI50,MCF7 breast,1.41 µM
same,TGI,MCF7 breast,2.95 µM
OC(COC(c1ccccc1)(c1ccccc1)c1ccccc1)C(O)CC1SCCS1 (centres undefined),TGI,MOLT-4 leukemia,68.7 µM
same,TGI,786-0 renal,39.7 µM
same,TGI,T-47D breast,58.3 µM
same,TGI,RXF 393 renal,32.1 µM
same,TGI,IGROV1 ovarian,30.5 µM
same,TGI,CAKI-1 renal,66.6 µM
same,TGI,ACHN renal,38.3 µM
same,TGI,SF-268 CNS,50.9 µM
same,TGI,MCF7 breast,71.9 µM
O=C([CH-]C(=O)c1ccccc1)c1ccccc1.[CH-]1CCCCC1.[CH-]1CCCCC1.[CH-]1CCCCC1.[Sn+4],GI50,MOLT-4 leukemia,2.41 µM
same,TGI,MOLT-4 leukemia,7.47 µM
same,GI50,786-0 renal,4.25 µM
same,TGI,786-0 renal,15.1 µM
same,GI50,RXF 393 renal,2.71 µM
same,TGI,RXF 393 renal,10.1 µM
same,GI50,IGROV1 ovarian,11.8 µM
same,TGI,IGROV1 ovarian,33.4 µM
same,GI50,CAKI-1 renal,4.52 µM
same,TGI,CAKI-1 renal,18.1 µM
same,GI50,ACHN renal,13.8 µM
same,TGI,ACHN renal,31.9 µM
same,GI50,A549 NSCLC,15.5 µM
same,TGI,A549 NSCLC,38.6 µM
same,GI50,SF-268 CNS,7.64 µM
same,TGI,SF-268 CNS,24.1 µM
CC(C)(C)C1CCC2c3c([nH]c4ccccc34)C3C(=O)N(c4ccc(Cl)cc4)C(=O)C3C2C1 (centres undefined),GI50,MOLT-4 leukemia,23.6 µM and > 10 µM
same,TGI,MOLT-4 leukemia,50.6 µM and > 10 µM
same,GI50,786-0 renal,> 100 µM
same,TGI,786-0 renal,> 100 µM
same,GI50,T-47D breast,60.9 µM and > 10 µM
same,TGI,T-47D breast,> 100 µM
same,GI50,RXF 393 renal,48.5 µM and > 10 µM
same,TGI,RXF 393 renal,> 100 µM
same,GI50,IGROV1 ovarian,> 100 µM
same,TGI,IGROV1 ovarian,> 100 µM
same,GI50,ACHN renal,76.5 µM and > 10 µM
same,TGI,ACHN renal,> 100 µM
same,GI50,A549 NSCLC,67 µM and > 10 µM
same,TGI,A549 NSCLC,> 100 µM
same,GI50,SF-268 CNS,53.9 µM and > 10 µM
same,TGI,SF-268 CNS,> 100 µM
same,TGI,MCF7 breast,99.6 µM
CC1=C(C(=O)Nc2ccccc2)C(c2cccc3ccccc23)C(C(=O)Nc2ccccc2)=C(C)N1,TGI,MOLT-4 leukemia,43.8 µM
same,TGI,786-0 renal,52.5 µM
same,TGI,RXF 393 renal,29.2 µM
same,TGI,IGROV1 ovarian,56.9 µM
same,TGI,CAKI-1 renal,38.2 µM
same,TGI,ACHN renal,83.8 µM
same,TGI,A549 NSCLC,82 µM
same,TGI,SF-268 CNS,43.1 µM
COC(=O)C1=C(O)[C@H](C(=O)OC)C2(O)C(C(=O)OC)[C@H](c3ccc(OC(=O)C(C)c4ccc(CC(C)C)cc4)cc3)C[C@@H]1[C@@H]2C(=O)OC (some centres undefined),GI50,786-0 renal,20.4 µM
same,TGI,786-0 renal,> 50 µM
same,GI50,T-47D breast,12.3 µM
same,TGI,T-47D breast,> 50 µM
same,GI50,IGROV1 ovarian,15 µM
same,TGI,IGROV1 ovarian,41.3 µM
same,GI50,CAKI-1 renal,> 50 µM
same,TGI,CAKI-1 renal,> 50 µM
same,GI50,ACHN renal,12 µM
same,TGI,ACHN renal,31.3 µM
same,GI50,A549 NSCLC,26.8 µM
same,TGI,A549 NSCLC,> 50 µM
same,GI50,SF-268 CNS,> 50 µM
same,TGI,SF-268 CNS,> 50 µM
same,GI50,MCF7 breast,8.18 µM
same,TGI,MCF7 breast,> 50 µM
